The experiment deals with beet armyworm (Spodoptera exigua). Nature of the experiment: Insecticidal test for beet armyworm, treated diet surface. The settings on record: 100 μg/cm^2 on diet surface, first instar larvae, 32 insects per treatment, observations 24, 48 and 96 hours. Type of experiment: in vivo. As for the experimental part:
The compounds identified in Table 8 were prepared according to the previous methods and were tested against beet armyworm and corn earworm as follows:
Insecticidal Test for Beet Armyworm (Spodoptera exigua).
To prepare the test solution, the test compound was Formulated at 3499 ppm in solution as 5 mg compound/1.429 mL of 9 parts acetone: 1 part deionized H2O and vortexed to homogenize. 50 μL of the 3499 ppm (equivalent to 100 μg/cm^2 dose on diet surface area) test solution was pipetted upon the surface of 1 mL of solidified cool Southland Products Incorporated Beet Armyworm Diet (201 Stuart Island Road Lake Village, Ark. 71653) using an Eppendorf Repeater Plus with a 1 mL pipette tip. All pipetting of treatments was done in a Labconco Hood. Thirty minutes were allowed for the acetone to evaporate leaving a dose of 100 μg/cm^2 on the surface of the artificial diet. Two 24 hour old first instar Beet Armyworm (Spodoptera Exigua) larvae were placed in each well of the 128 well Bio-BA 128 Bioassay trays (CD International, Pitman, N.J., 08071, USA) using a #0 fine camel hair paint brush. Bioassay trays were sectioned into treatment groups of 8 with 16 replicates per treatment group (32 insects per treatment). Trays containing the treated diet and larvae were covered with a Bio-CV-16 cover (CD International, Pitman, N.J., 08071, USA) and then placed on a rack under florescent lights at 27° C., 20% relative humidity (RH) in the room, and 16 hr light: 8 hr dark for 96 hours. Observations were made 24, 48 and 96 hours after treatment and infestation. The number of insects dead were counted out of the 32 insects total per treatment and the results are given in a table as a percent mortality at a dose of 100 μg/cm^2. When finished, the tray was moved to the −5° C. freezer and left for 24 hr to insure mortality of the remaining S. exigua. After 24 hours, dispose of entire tray into waste bin.
Keys to the table: Mortality refers to activity against beet army worm (Spodoptera exigua) as defined above at the concentration of 100 μg/cm^2 (A=76-100% mortality, B=51-75% mortality, C=26-50% mortality and D=0-25% mortality).
`Fc1cccc(Cl)c1-c1nc(NN=Cc2ccc(OC(F)(F)F)cc2)nc(Nc2ccccc2Cl)n1` [Example 41, 4-(2-chloro-6-fluorophenyl)-N-(2-chlorophenyl)-6-(2-(4-(trifluoromethoxy)benzylidene)hydrazinyl)-1,3,5-triazin-2-amine]: the mortality (in general, the share of the test organisms that died) at 100 µg/cm2 is 76 to 100%.
Molecule `Fc1cccc(Cl)c1-c1nc(NN=Cc2ccc(OC(F)(F)F)cc2)nc(Nc2cc(Cl)cc(Cl)c2)n1` [Example 39, 4-(2-chloro-6-fluorophenyl)-N-(3,5-dichlorophenyl)-6-(2-(4-(trifluoromethoxy)benzylidene)hydrazinyl)-1,3,5-triazin-2-amine] came in with a mortality at 100 µg/cm2 of 76 to 100%.
`Oc1ccc(C=NNc2nc(Nc3ccc(Cl)nc3)nc(-c3c(F)cccc3Cl)n2)cc1` [Example 50]: the mortality at 100 µg/cm2 fell in the range of 0 to 25%.
As for `Fc1cccc(F)c1-c1nc(NCc2ccc(Cl)nc2)nc(NN=Cc2ccc(OC(F)(F)F)cc2)n1` [Example 8, N-((6-chloropyridin-3-yl)methyl)-4-(2,6-difluorophenyl)-6-(2-(4-(trifluoromethoxy)benzylidene)hydrazinyl)-1,3,5-triazin-2-amine], the figure is 76 to 100%; as for `Fc1cccc(Cl)c1-c1nc(NN=Cc2ccc(OC(F)(F)F)cc2)nc(Nc2ccc(Cl)cn2)n1` [Example 45, 4-(2-chloro-6-fluorophenyl)-N-(5-chloropyridin-2-yl)-6-(2-(4-(trifluoromethoxy)benzylidene)hydrazinyl)-1,3,5-triazin-2-amine], 26 to 50%; as for `FC(F)(F)Oc1ccc(C=NNc2nc(Nc3ccc(Cl)cc3)nc(-c3ccccc3)n2)cc1` [Example 2, N-(4-chlorophenyl)-4-phenyl-6-(2-(4-(trifluoromethoxy)benzylidene)hydrazinyl)-1,3,5-triazin-2-amine], 76 to 100%.
Consider `Fc1ccc(Nc2nc(NN=Cc3ccc(OC(F)(F)F)cc3)nc(-c3c(F)cccc3Cl)n2)cc1Cl` [Example 34, N-(3-chloro-4-fluorophenyl)-4-(2-chloro-6-fluorophenyl)-6-(2-(4-(trifluoromethoxy)benzylidene)hydrazinyl)-1,3,5-triazin-2-amine], for which the mortality at 100 µg/cm2 is 76 to 100%.
`FC(F)(F)Oc1ccc(C=NNc2nc(Nc3ccc(Cl)nc3)nc(-c3c(Cl)cccc3Cl)n2)cc1` [Example 16, N-(6-chloropyridin-3-yl)-4-(2,6-dichlorophenyl)-6-(2-(4-(trifluoromethoxy)benzylidene)hydrazinyl)-1,3,5-triazin-2-amine] gave a mortality at 100 µg/cm2 of 76 to 100%.
The molecule `Fc1cccc(Cl)c1-c1nc(NN=Cc2ccc(OC(F)(F)C(F)F)cc2)nc(Nc2ccc(Cl)nc2)n1` [Example 12, 4-(2-chloro-6-fluorophenyl)-N-(6-chloropyridin-3-yl)-6-(2-(4-(1,1,2,2-tetrafluoroethoxy)benzylidene)hydrazinyl)-1,3,5-triazin-2-amine] gave a mortality at 100 µg/cm2 of 76 to 100%.
In turn, `Fc1cc(C=NNc2nc(Nc3ccc(Cl)nc3)nc(-c3c(F)cccc3Cl)n2)ccc1C(F)(F)F` [Example 55, 4-(2-chloro-6-fluorophenyl)-N-(6-chloropyridin-3-yl)-6-(2-(3-fluoro-4-(trifluoromethyl)benzylidene)hydrazinyl)-1,3,5-triazin-2-amine] gave a mortality at 100 µg/cm2 of 76 to 100%.
As for `Fc1cccc(Cl)c1-c1nc(NN=Cc2ccc(OC(F)(F)F)cc2)nc(Nc2ccc(Cl)c(Cl)c2)n1` [Example 38, 4-(2-chloro-6-fluorophenyl)-N-(3,4-dichlorophenyl)-6-(2-(4-(trifluoromethoxy)benzylidene)hydrazinyl)-1,3,5-triazin-2-amine], the mortality at 100 µg/cm2 lay within 76 to 100%.
`FC(F)(F)Oc1ccc(C=NNc2cc(-c3ccccc3)nc(Nc3ccc(Cl)cc3)n2)cc1` [Example 58, N-(4-chlorophenyl)-4-phenyl-6-(2-(4-(trifluoromethoxy)benzylidene)hydrazinyl)pyrimidin-2-amine] yielded a mortality at 100 µg/cm2 of 76 to 100%.
`Fc1cccc(F)c1-c1nc(NN=Cc2ccc(OC(F)(F)F)cc2)nc(Nc2ccc(OC(F)(F)F)cc2)n1` [Example 6, 4-(2,6-difluorophenyl)-6-(2-(4-(trifluoromethoxy)benzylidene)hydrazinyl)-N-(4-(trifluoromethoxy)phenyl)-1,3,5-triazin-2-amine] displayed a mortality at 100 µg/cm2 of 26 to 50%.
In turn, `Fc1cccc(F)c1-c1nc(NN=Cc2ccc(OC(F)(F)F)cc2)nc(Nc2ccc(Cl)cc2)n1` [Example 1, N-(4-chlorophenyl)-4-(2,6-difluorophenyl)-6-(2-(4-(trifluoromethoxy)benzylidene)hydrazinyl)-1,3,5-triazin-2-amine] showed a mortality at 100 µg/cm2 of 76 to 100%.
Turning to `Cc1ccc(C=NNc2nc(Nc3ccc(Cl)nc3)nc(-c3c(F)cccc3Cl)n2)cc1` [Example 53, 4-(2-chloro-6-fluorophenyl)-N-(6-chloropyridin-3-yl)-6-(2-(4-methylbenzylidene)hydrazinyl)-1,3,5-triazin-2-amine], the mortality at 100 µg/cm2 lay in the range of 76 to 100%.
In turn, `Fc1cccc(Cl)c1-c1nc(NN=CCc2ccccc2)nc(Nc2ccc(Cl)cc2)n1` [Example 20, 4-(2-chloro-6-fluorophenyl)-N-(4-chlorophenyl)-6-(2-(2-phenylethylidene)hydrazinyl)-1,3,5-triazin-2-amine] registered a mortality at 100 µg/cm2 of 76 to 100%.
Consider `Fc1cccc(Cl)c1-c1nc(NCC2CCOC2)nc(NN=Cc2ccc(OC(F)(F)F)cc2)n1` (stereo not drawn) [Example 26, 4-(2-chloro-6-fluorophenyl)-N-((tetrahydrofuran-3-yl)methyl)-6-(2-(4-(trifluoromethoxy)benzylidene)hydrazinyl)-1,3,5-triazin-2-amine], for which the mortality at 100 µg/cm2 is 0 to 25%.
For `FC(F)(F)Oc1ccc(C=NNc2nc(Nc3ccc(Cl)cc3)nc(-c3ccc(OC(F)(F)F)cc3)n2)cc1` [Example 3, N-(4-chlorophenyl)-4-(2-(4-(trifluoromethoxy)benzylidene)hydrazinyl)-6-(4-(trifluoromethoxy)phenyl)-1,3,5-triazin-2-amine], the mortality at 100 µg/cm2 fell in the range of 26 to 50%.
Regarding `NCCNc1nc(NN=Cc2ccc(OC(F)(F)F)cc2)nc(-c2c(F)cccc2Cl)n1` [Example 28, N1-(4-(2-chloro-6-fluorophenyl)-6-(2-(4-(trifluoromethoxy)benzylidene)hydrazinyl)-1,3,5-triazin-2-yl)ethane-1,2-diamine], the mortality at 100 µg/cm2 lay within 0 to 25%.
In turn, `Fc1cccc(Cl)c1-c1nc(NN=Cc2ccc(OC(F)(F)F)cc2)nc(Nc2ccc(Cl)cc2)n1` [Example 4] displayed a mortality at 100 µg/cm2 of 76 to 100%.
Take `Fc1cccc(Cl)c1-c1cc(Nc2ccc(Cl)nc2)nc(NN=Cc2ccc(OC(F)(F)F)cc2)n1` [Example 59, 6-(2-chloro-6-fluorophenyl)-N-(6-chloropyridin-3-yl)-2-(2-(4-(trifluoromethoxy)benzylidene)hydrazinyl)pyrimidin-4-amine]: the mortality at 100 µg/cm2 was 76 to 100%.
`FC(F)(F)Oc1ccc(C=NNc2nc(Nc3ccc(Cl)cc3)nc(-c3ccc(Cl)c(Cl)c3)n2)cc1` [Example 32, N-(4-chlorophenyl)-4-(3,4-dichlorophenyl)-6-(2-(4-(trifluoromethoxy)benzylidene)hydrazinyl)-1,3,5-triazin-2-amine] registered a mortality at 100 µg/cm2 of 0 to 25%.
Take `Fc1cccc(Cl)c1-c1nc(NCCN2CCOCC2)nc(NN=Cc2ccc(OC(F)(F)F)cc2)n1` [Example 24, 4-(2-chloro-6-fluorophenyl)-N-(2-morpholinoethyl)-6-(2-(4-(trifluoromethoxy)benzylidene)hydrazinyl)-1,3,5-triazin-2-amine]: the mortality at 100 µg/cm2 is 76 to 100%.
In turn, `Fc1ccc(Nc2nc(NN=Cc3ccc(OC(F)(F)F)cc3)nc(-c3c(F)cccc3Cl)n2)cc1C(F)(F)F` [Example 35, 4-(2-chloro-6-fluorophenyl)-N-(4-fluoro-3-(trifluoromethyl)phenyl)-6-(2-(4-(trifluoromethoxy)benzylidene)hydrazinyl)-1,3,5-triazin-2-amine] had a mortality at 100 µg/cm2 of 76 to 100%.
In turn, `Fc1cccc(F)c1-c1nc(NN=Cc2ccc(OC(F)(F)F)cc2)nc(Nc2cccc(C(F)(F)F)c2)n1` [Example 7, 4-(2,6-difluorophenyl)-6-(2-(4-(trifluoromethoxy)benzylidene)hydrazinyl)-N-(3-(trifluoromethyl)phenyl)-1,3,5-triazin-2-amine] came in with a mortality at 100 µg/cm2 of 0 to 25%.
The value for `Fc1ccccc1-c1nc(NN=Cc2ccc(OC(F)(F)F)cc2)nc(Nc2ccc(Cl)cc2)n1` [Example 44, N-(4-chlorophenyl)-4-(2-fluorophenyl)-6-(2-(4-(trifluoromethoxy)benzylidene)hydrazinyl)-1,3,5-triazin-2-amine] was 76 to 100%; that for `Cc1ccc(Nc2nc(NN=Cc3ccc(OC(F)(F)F)cc3)nc(-c3c(F)cccc3Cl)n2)cc1` [Example 23, 4-(2-chloro-6-fluorophenyl)-N-(p-tolyl)-6-(2-(4-(trifluoromethoxy)benzylidene)hydrazinyl)-1,3,5-triazin-2-amine] was 76 to 100%.
